30 compounds from patent US9242996B2 (Novartis AG, priority 2013, dated 2016) can be followed below.

The target in the first assay is T1, activated ERK2 (Homo sapiens (Human), UniProt P28482). The assay is described as follows: Activated ERK2 (20 pM) Kinase Assay (AlphaScreen, ERKtide phosphorylation). The following applies: 0.02 nM ERK2, 400 nM ERKtide peptide, 35 μM ATP, 30 min preincubation. The class given is biochemical. The method, boiled down: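 AlphaScreen read-out (anti-phospho-EGFR Thr669 antibody, protein A acceptor/streptavidin donor beads) of ERKtide (400 nM) phosphorylation by 20 pM activated ERK2 at 35 μM ATP.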
T1 sequence (P28482 whole entry): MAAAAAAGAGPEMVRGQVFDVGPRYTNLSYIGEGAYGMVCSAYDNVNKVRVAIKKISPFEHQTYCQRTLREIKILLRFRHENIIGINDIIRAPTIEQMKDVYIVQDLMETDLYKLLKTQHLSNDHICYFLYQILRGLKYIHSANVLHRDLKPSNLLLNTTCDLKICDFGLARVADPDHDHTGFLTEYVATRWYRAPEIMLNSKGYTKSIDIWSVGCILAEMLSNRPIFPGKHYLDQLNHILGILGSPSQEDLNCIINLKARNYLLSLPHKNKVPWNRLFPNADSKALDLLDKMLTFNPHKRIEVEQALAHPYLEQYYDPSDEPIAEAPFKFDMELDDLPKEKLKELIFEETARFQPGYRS
As for `C[C@@H](NC(=O)c1ccc(-c2cc(C3CCNC(=O)C3)cnc2N)cc1F)c1cccc(Cl)c1` (mixture of isomers) [Example 120, 4-(2-amino-5-(2-oxopiperidin-4-yl)pyridin-3-yl)-N-((R)-1-(3-chlorophenyl)ethyl)-2-fluorobenzamide], the concentration for half-maximal inhibition (IC50) stood at 0.536 nM.
On the same count and under the same terms, then `Nc1ncc(C2CCNC(=O)C2)cc1-c1ccc(C(=O)N[C@H](CO)c2cccc(Cl)c2)c(F)c1` (mixture of isomers) [Example 121, 4-(2-amino-5-(2-oxopiperidin-4-yl)pyridin-3-yl)-N-((S)-1-(3-chlorophenyl)-2-hydroxyethyl)-2-fluorobenzamide], with 0.217 nM; and `CS(=O)(=O)[C@H]1CC[C@@H](c2cnc(N)c(-c3ccc(C(=O)NCc4ccccc4)c(F)c3)n2)CC1` [Example 16, 4-(3-amino-6-((1s,4s)-4-(methylsulfonyl)cyclohexyl)pyrazin-2-yl)-N-benzyl-2-fluorobenzamide], with 197 nM; and `CN1CC[C@@H](c2cnc(N)c(-c3ccc(C(=O)N[C@H](CO)c4cccc(Cl)c4)c(F)c3)c2)CC1=O` [Example 27, 4-(2-amino-5-((R)-1-methyl-2-oxopiperidin-4-yl)pyridin-3-yl)-N—((S)-1-(3-chlorophenyl)-2-hydroxyethyl)-2-fluorobenzamide], with 1.87 nM.

For a further assay, the target named is T1, activated ERK2. The assay is described as follows: Activated ERK2 kinase assay, ERK2 New conditions (AlphaScreen, ERKtide phosphorylation). The class given is biochemical. The following applies: 0.25 nM ERK2, 200 nM ERKtide peptide, 35 μM ATP, 30 min preincubation. A digest of the protocol:
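Read-out is AlphaScreen with anti-phospho-EGFR (Thr669) antibody after EDTA quench and overnight dark incubation. Reaction: 0.25 nM ERK2, 30 min compound preincubation, then 200 nM ERKtide plus 35 µM ATP for 2–3 h at ambient temperature, pH 7.5. IC50 by four-parameter fit.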
Background: In Alpha technology, singlet oxygen from a donor bead excites a nearby acceptor bead.
For the compound `C[C@@H](NC(=O)c1ccc(-c2cc(C3CCNC(=O)C3)cnc2N)cc1F)c1cccc(Cl)c1` (mixture of isomers) [Example 120, 4-(2-amino-5-(2-oxopiperidin-4-yl)pyridin-3-yl)-N-((R)-1-(3-chlorophenyl)ethyl)-2-fluorobenzamide], 1.35 nM corresponded to half-maximal inhibition (IC50).
Same read-out and setting: with `Nc1ncc(C2CCNC(=O)C2)cc1-c1ccc(C(=O)N[C@H](CO)c2cccc(Cl)c2)c(F)c1` (mixture of isomers) [Example 121, 4-(2-amino-5-(2-oxopiperidin-4-yl)pyridin-3-yl)-N-((S)-1-(3-chlorophenyl)-2-hydroxyethyl)-2-fluorobenzamide] the figure was 0.34 nM; with `CS(=O)(=O)[C@H]1CC[C@@H](c2cnc(N)c(-c3ccc(C(=O)NCc4ccccc4)c(F)c3)n2)CC1` [Example 16, 4-(3-amino-6-((1s,4s)-4-(methylsulfonyl)cyclohexyl)pyrazin-2-yl)-N-benzyl-2-fluorobenzamide], 206 nM.
The same measure, in the same setting: then `CN1CC[C@@H](c2cnc(N)c(-c3ccc(C(=O)N[C@H](CO)c4cccc(Cl)c4)c(F)c3)c2)CC1=O` [Example 27, 4-(2-amino-5-((R)-1-methyl-2-oxopiperidin-4-yl)pyridin-3-yl)-N—((S)-1-(3-chlorophenyl)-2-hydroxyethyl)-2-fluorobenzamide], with 4.1 nM.
The same measure, in the same setting: with `CC(C)n1cc(-c2cnc(N)c(-c3ccc(C(=O)N[C@H](CO)c4cccc(F)c4)c(F)c3)c2)cn1` [Example 292, (S)-4-(2-amino-5-(1-isopropyl-1H-pyrazol-4-yl)pyridin-3-yl)-2-fluoro-N-(1-(3-fluorophenyl)-2-hydroxyethyl) benzamide] the figure was 2.82 nM; with `Cc1c(-c2cnc(N)c(-c3ccc(C(=O)N[C@H](CO)c4cccc(F)c4)c(F)c3)c2)cnn1C` [Example 295, (S)-4-(2-amino-5-(1,5-dimethyl-1H-pyrazol-4-yl)pyridin-3-yl)-2-fluoro-N-(1-(3-fluorophenyl)-2-hydroxyethyl) benzamide], 0.595 nM.
Take `CCn1cc(-c2cnc(N)c(-c3ccc(C(=O)N[C@H](CO)c4cccc(S(C)(=O)=O)c4)c(F)c3)c2)cn1` [Example 296, (S)-4-(2-amino-5-(1-ethyl-1H-pyrazol-4-yl)pyridin-3-yl)-2-fluoro-N-(2-hydroxy-1-(3-(methylsulfonyl)phenyl)ethyl) benzamide]: the midpoint of inhibition, the IC50, lay at 1.08 nM.
Regarding `CCn1cc(-c2cnc(N)c(-c3ccc(C(=O)N[C@H](CO)c4cccc(F)c4)c(F)c3)c2)cn1` [Example 298, (S)-4-(2-amino-5-(1-ethyl-1H-pyrazol-4-yl)pyridin-3-yl)-2-fluoro-N-(1-(3-fluorophenyl)-2-hydroxyethyl) benzamide], the IC50 was determined as 1.95 nM.
The compound `CCn1cc(-c2cnc(N)c(-c3ccc(C(=O)N[C@H](C)c4cccc(S(C)(=O)=O)c4)c(F)c3)c2)cn1` [Example 299, (R)-4-(2-amino-5-(1-ethyl-1H-pyrazol-4-yl)pyridin-3-yl)-2-fluoro-N-(1-(3-(methylsulfonyl)phenyl)ethyl) benzamide] yielded an IC50 of 3.57 nM. This IC50 lies about 1.8-fold higher than the previous one.
Still for that read-out and setting: then `C[C@@H](NC(=O)c1ccc(-c2cc(-c3cnnn3C)cnc2N)cc1F)c1cccc(Cl)c1` [Example 303, (R)-4-(2-amino-5-(1-methyl-1H-1,2,3-triazol-5-yl)pyridin-3-yl)-N-(1-(3-chlorophenyl)ethyl)-2-fluorobenzamide], with 0.221 nM; and `Cn1nncc1-c1cnc(N)c(-c2ccc(C(=O)N[C@H](CO)c3ccccc3)c(F)c2)c1` [Example 304, (S)-4-(2-amino-5-(1-methyl-1H-1,2,3-triazol-5-yl)pyridin-3-yl)-2-fluoro-N-(2-hydroxy-1-phenylethyl) benzamide], with 2.5 nM.
Same read-out and setting: with `Cn1nncc1-c1cnc(N)c(-c2ccc(C(=O)N[C@H](CO)c3cccc(F)c3)c(F)c2)c1` [Example 305, (S)-4-(2-amino-5-(1-methyl-1H-1,2,3-triazol-5-yl)pyridin-3-yl)-2-fluoro-N-(1-(3-fluorophenyl)-2-hydroxyethyl) benzamide] the figure was 1.91 nM.
On the same count and under the same terms, then `Cc1cccc([C@@H](CO)NC(=O)c2ccc(-c3cc(-c4cnnn4C)cnc3N)cc2F)c1` [Example 306, (S)-4-(2-amino-5-(1-methyl-1H-1,2,3-triazol-5-yl)pyridin-3-yl)-2-fluoro-N-(2-hydroxy-1-(m-tolyl)ethyl) benzamide], with 0.378 nM; and `Cn1cc(-c2cnc(N)c(-c3ccc(C(=O)NC(CN)c4cccc(Cl)c4)c(F)c3)c2)cn1` (stereo not shown) [Example 307, N-(2-amino-1-(3-chlorophenyl)ethyl)-4-(2-amino-5-(1-methyl-1H-pyrazol-4-yl)pyridin-3-yl)-2-fluorobenzamide], with 0.2 nM.
With `CS(=O)(=O)c1cc(F)cc(CNC(=O)c2ccc(-c3nc(C4CCOCC4)cnc3N)cc2F)c1` [Example 310, 4-(3-amino-6-(tetrahydro-2H-pyran-4-yl)pyrazin-2-yl)-2-fluoro-N-(3-fluoro-5-(methylsulfonyl)benzyl)benzamide], the IC50 was determined as 0.242 nM.
The same measure, in the same setting: with `CCn1cc(-c2cnc(N)c(-c3ccc(C(=O)N[C@H](C)c4cc(F)cc(S(C)(=O)=O)c4)c(F)c3)c2)cn1` [Example 313, (R)-4-(2-amino-5-(1-ethyl-1H-pyrazol-4-yl)pyridin-3-yl)-2-fluoro-N-(1-(3-fluoro-5-(methylsulfonyl)phenyl)ethyl) benzamide] the figure was 0.617 nM; with `CCn1cc(-c2cnc(N)c(-c3ccc(C(=O)N[C@H](CO)c4ccccc4)c(F)c3)c2)cn1` [Example 314, (S)-4-(2-amino-5-(1-ethyl-1H-pyrazol-4-yl)pyridin-3-yl)-2-fluoro-N-(2-hydroxy-1-phenylethyl) benzamide], 1.48 nM.
On the same count and under the same terms, then `Nc1ncc(C2CNC(=O)C2)cc1-c1ccc(C(=O)NCc2ccccc2)c(F)c1` (stereo not shown) [Example 316, 4-(2-amino-5-(5-oxopyrrolidin-3-yl)pyridin-3-yl)-N-benzyl-2-fluorobenzamide], with 330 nM.
Still for that read-out and setting: with `Cc1ccnc(CNC(=O)c2ccc(-c3cc(C4CCOCC4)cnc3N)cc2F)n1` [Example 317, 4-(2-amino-5-(tetrahydro-2H-pyran-4-yl)pyridin-3-yl)-2-fluoro-N-((4-methylpyrimidin-2-yl)methyl) benzamde] the figure was 1340 nM.
Turning to `NC(=O)c1ccc(-c2nc(C3CCOCC3)cnc2N)cc1F` [Example 319, 4-(3-amino-6-(tetrahydro-2H-pyran-4-yl)pyrazin-2-yl)-2-fluorobenzamide], half-maximal inhibition (IC50) required 151 nM.
Same read-out and setting: then `CNC(=O)c1ccc(-c2nc(C3CCOCC3)cnc2N)cc1F` [Example 320, 4-(3-amino-6-(tetrahydro-2H-pyran-4-yl)pyrazin-2-yl)-2-fluoro-N-methylbenzamide], with 354 nM; and `Nc1ncc(C2CCOCC2)nc1-c1ccc(C(=O)N2CCOC[C@@H]2c2ccccc2)cc1` [Example 322, (S)-(4-(3-amino-6-(tetrahydro-2H-pyran-4-yl)pyrazin-2-yl)phenyl)(3-phenylmorpholino) methanone], with 91.2 nM.
The same measure, in the same setting: then `CS(=O)(=O)c1cccc(CNC(=O)c2ccc(-c3nc(C4CCOCC4)cnc3N)cc2)c1` [Example 323, 4-(3-amino-6-(tetrahydro-2H-pyran-4-yl)pyrazin-2-yl)-N-(3-(methylsulfonyl)benzyl)benzamide], with 3.29 nM; and `NC[C@@H](NC(=O)c1ccc(-c2nc(C3CCOCC3)cnc2N)cc1F)c1ccccc1` [Example 326, (S)-N-(2-amino-1-phenylethyl)-4-(3-amino-6-(tetrahydro-2H-pyran-4-yl)pyrazin-2-yl)-2-fluorobenzamide], with 0.253 nM; and `Nc1ncc(C2CCOCC2)nc1-c1ccc(C(=O)N[C@H](CF)c2ccccc2)cc1` [Example 327, (S)-4-(3-amino-6-(tetrahydro-2H-pyran-4-yl)pyrazin-2-yl)-N-(2-fluoro-1-phenylethyl) benzamide], with 54.2 nM.
As for `Nc1ncc(C2CCC3(CC2)OCCO3)nc1-c1ccc(C(=O)NCc2ccccc2)c(F)c1` [Example 413, 4-(3-amino-6-(1,4-dioxaspiro[4.5]decan-8-yl)pyrazin-2-yl)-N-benzyl-2-fluorobenzamide], the IC50 is 204 nM. This IC50 lies about 3.8-fold higher than the previous one.
Same read-out and setting: with `C[C@@H](NC(=O)c1ccc(-c2nc([C@H]3CC[C@H](O)CC3)cnc2N)cc1F)c1cccc(Cl)c1` [Example 415, 4-(3-amino-6-((1r,4R)-4-hydroxy-cyclohexyl)pyrazin-2-yl)-N-((R)-1-(3-chlorophenyl)ethyl)-2-fluorobenzamide] the figure was 1.68 nM; with `C[C@@H](NC(=O)c1ccc(-c2nc([C@H]3CC[C@@H](O)CC3)cnc2N)cc1F)c1cccc(Cl)c1` [Example 416, 4-(3-amino-6-((1s,4S)-4-hydroxy-cyclohexyl)pyrazin-2-yl)-N-((R)-1-(3-chlorophenyl)ethyl)-2-fluorobenzamide], 5.68 nM; with `C[C@@H](NC(=O)c1ccc(-c2nc([C@H]3CC[C@H](O)CC3)cnc2N)cc1F)c1cc(F)cc(S(C)(=O)=O)c1` [Example 419, 4-(3-amino-6-((1r,4R)-4-hydroxy-cyclohexyl)pyrazin-2-yl)-2-fluoro-N-((R)-1-(3-fluoro-5-(methylsulfonyl)phenyl)ethyl) benzamide], 0.853 nM.
Regarding `C[C@@H](NC(=O)c1ccc(-c2nc([C@H]3CC[C@@H](O)CC3)cnc2N)cc1F)c1cc(F)cc(S(C)(=O)=O)c1` [Example 420, 4-(3-amino-6-((1s,4S)-4-hydroxy-cyclohexyl)pyrazin-2-yl)-2-fluoro-N-((R)-1-(3-fluoro-5-(methylsulfonyl)phenyl)ethyl) benzamide], it took 1.95 nM to reach half-maximal inhibition (IC50). Against the preceding compound, the IC50 is about 2.3-fold higher.

By IC50 is commonly meant the concentration needed to halve the response being measured. A higher IC50 goes with weaker potency.
